Paper PMC5971065 (ACS infectious diseases, 2017)

Columns and labels:
Mtb H37Rv = type: cell-based, Mycobacterium tuberculosis
[1] = system: A549, HEK-293, and J774A.1 cells; test: Mammalian cytotoxicity; details: positive control treatment

Row | Substance | H37Rv MICKAN (Mtb H37Rv) | cytotoxicity [1]
1 | kanamycin A | 1.25 µg/mL | 
2 | Triton X-100 |  | most of the cells killed
